The target in assay [1] is T1, human synovial fluid PLA2 (Homo sapiens, UniProt P14555).
T1 sequence (P14555 21-144): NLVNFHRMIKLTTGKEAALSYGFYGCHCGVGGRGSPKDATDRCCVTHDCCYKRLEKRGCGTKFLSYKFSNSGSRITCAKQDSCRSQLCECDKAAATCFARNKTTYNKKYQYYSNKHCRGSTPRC
As to the kind of experiment: in vitro isolated phospholipase A2 assay, human synovial fluid PLA2 (Example 74). It is filed as biochemical. On the set-up: inhibition / % Inhibition, HSF (human synovial fluid): dose or concentration left out as unconfirmed. The conditions noted are these: for inhibition: read-out: % Inhibition, HSF (human synovial fluid); for IC50: Table III, read-out: IC50 HSF (human synovial fluid). As to the method:
The compounds of the invention are tested in an in vitro isolated phospholipase A2 assay to determine the ability of the test compounds to inhibit the release of arachidonic acid from an arachidonic acid-containing substrate by the action of phospholipase A2 enzyme from human and non-human sources.
(§1) This assay is carried out as follows:
Into a 15 mL polypropylene tube are added the following:
^6 Two human PLA2 enzymes are used:
b) Purified human synovial fluid.
Incubate the 100mL reaction mixture for 10 minutes at 37° C. in a shaking water bath. The reaction is terminated by the addition of 2 mL tetrahydrofuran, followed by vortexlag. NH2 columns (100 mg/mL--Analytichem International) are conditioned with 0.5 mL tetrahydrofuran followed by 0.5 mL tetrahydrofuran/water (2 mL:0.1 mL, v/v).
The sample is loaded onto the columns and slowly drawn through them. The hydrolyzed arachidonic acid retained in the columns is eluted therefrom with 1 mL tetrahydrofuran/glacial acetic acid (2%). The arachidonic acid is transferred to scintillation vials and quantitated by b-counting analysis. A "total counts" sample is prepared by pipetting […] ^3 H-arachidonate E. coli directly into a scintillation vial to which is added 1 mL tetrahydrofuran. 10 mL aquasol (scintillation cocktail) is added to all samples. [formula]

The test system of assay [2] is 5-lipoxygenase in human whole blood. As to the kind of experiment: inhibition of 5-lipoxygenase in human whole blood (Example 79). The format is cell-based. The conditions noted are these: for IC50: human whole blood, read-out: IC50 (inhibition of LTB4). As to the method:
The assay of this Example measures the ability of the compounds tested to inhibit 5-lipoxygenase in human whole blood.
as §1
Blood is obtained in 50-100 ml quantities from male donors. White blood cell counts and differentials are made. Two ml of blood are placed in a 15 ml polypropylene test tube. Compounds are solubilized in dimethylsulfoxide and diluted 1:10 in 10% bovine serum albumin in phosphate buffered saline, pH 7.4 resulting in a final dimethylsulfoxide concentration of 0.1% in the blood. Then, compounds are added to the blood in a shaking water bath at 37° C. for 10 minutes prior to the addition of […] calcium ionophore (A23187; Sigma). After ionophore administration, whole blood samples are mixed and incubated for 20 minutes at 37° C. in a shaking water bath. Incubation is terminated by placing samples in an ice bath and immediately adding ethylene glycol-bis-(b-aminoethyl ether)-N,N,N',N'-tetraacetic acid (10 mM). Samples are mixed and centrifuged at 1200 × g for 15 minutes at 4° C. Preparation of samples for evaluation by RIA or ELISA is carried out by the following protocol. Plasma is removed from sample tubes, placed in 15 ml polypropylene test tubes containing 8 ml methanol, and then vortexed to precipitate protein. Samples are stored at -70° C. overnight. The next day, samples are centrifuged at 200 × g for 15 minutes at 4° C. to pellet the precipitate. Samples are dried in a Savant speed vac concentrator, reconstituted to original volume with ice cold RIA or ELISA buffer, and stored at -70° C. until assayed. The assay for eicosanoids (LTB4, T×B2, and PGE2) is performed as described by the manufacturer of the [^3 H]-RIA kit or ELISA kit (LTB4 -Amersham, TxB2 and PGE2 - Caymen Chemical).
The total eicosanoid level in 2 ml of blood is calculated and reported as ng/10^6 neutrophils. […] Drug effects are expressed as percent change from control values.
Compounds tested in vitro are solubilized in dimethylsulfoxide and diluted 1:10 in 10% bovine serum albumin in phosphate buffer saline resulting in a final dimethylsulfoxide concentration of 0.1% i n the blood.

Counter-ions that a name gives are not always drawn.

For the molecule “1-[(4-Chlorophenyl)methyl]-5-(2-quinolinylmethoxy)-1H-indole-3-acetic acid [Example 32]”, the “% Inhibition, HSF (human synovial fluid)” value in assay [1] was determined as 36%.

`Cc1c(CC(=O)N(C)O)c2cc(OCc3ccc4ccccc4n3)ccc2n1Cc1ccc(Cl)cc1` [Example 22, 1-[(4-Chlorophenyl)methyl]-2-methyl-N-(methyl)-N-(hydroxy)-5-(2-quinolinylmethoxy)-1H,indole-3-acetamide three quarters hydrate]: the “% Inhibition of LTB4” value in assay [2] (25 μM) is on record as 78%. In addition, the half-inhibitory concentration (IC50) (in general, the concentration that inhibits the measured activity by half) in assay [2] was found to be 39.8 µM.

For the molecule `Cc1c(CC(=O)NS(=O)(=O)c2ccccc2)c2cc(OCc3ccc4ccccc4n3)ccc2n1Cc1ccc(Cl)cc1` [Example 23], the inhibition (commonly the change of the read-out against control, counted positive when it falls) in assay [1] was determined as 64%.

For `Cc1c(CC(=O)O)c2cc(OCc3ccc4ccccc4n3)ccc2n1Cc1ccc(C(=O)O)cc1` [Example 27, 1-[(4-Carboxyphenyl)methyl]-2-methyl-5-(2-quinolinylmethoxy)-1H-indole-3-acetic acid], the inhibition in assay [1] was found to be 45%.

As for `Cc1c(CC(=O)O)c2cc(OCc3ccc4ccccc4n3)ccc2n1Cc1ccc(OCc2ccc3ccccc3n2)cc1` [Example 28, 2-Methyl-5-(2-quinolinylmethoxy)-1-[[4-(2-quinolinylmethoxy)phenyl]methyl]-1H-indole-3-acetic acid hemihydrate], in assay [1], the inhibition is 41%.

On to `O=C(O)Cc1cn(Cc2ccc(Cl)cc2)c2ccc(OCc3ccc4ccccc4n3)cc12` [Example 33, 1-[(4-Chlorophenyl)methyl]-5-(2-quinolinylmethoxy)-1H-indole-3-acetic acid], for which the inhibition in assay [1] turned out to be 38%.

For `Cc1c(CC(=O)O)c2cc(OCc3ccc4ccccc4c3)ccc2n1Cc1ccc(Cl)cc1` [Example 34, 1-[(4-Chlorophenyl)methyl]-2-methyl-5-(2-naphthalenylmethoxy)-1H-indole-3-acetic acid], the IC50 in assay [1] is 33.7 µM.

Regarding `Cc1c(CC(=O)O)c2cc(OCc3ccccc3)ccc2n1Cc1ccc(Cl)cc1` [Example 35, 1-[(4-Chlorophenyl)methyl]-2-methyl-5-(phenylmethoxy)-1H-indole-3-acetic acid], in assay [1], the half-inhibitory concentration (IC50) worked out at 52.9 µM and the inhibition is 28%.

In the case of `Cc1c(CC(=O)O)c2cc(OCc3ccccn3)ccc2n1Cc1ccc(Cl)cc1` [Example 36, 1-[(4-Chlorophenyl)methyl]-2-methyl-5-(2-pyridinylmethoxy)-1H-indole-3-acetic acid], the inhibition in assay [1] is 46%.

As for `Cc1c(CC(=O)O)c2cc(OCc3nc4ccccc4s3)ccc2n1Cc1ccc(Cl)cc1` [Example 37, 1-[(4-Chlorophenyl)methyl]-2-methyl-5-(2-benzothiazolylmethoxy)-1H-indole-3-acetic acid], the inhibition in assay [1] was found to be 39%.

As to `Cc1c(CC(=O)O)c2cc(OCc3csc(-c4ccccc4)n3)ccc2n1Cc1ccc(Cl)cc1` [Example 38, 1-[(4-Chlorophenyl)methyl]-2-methyl-5-[(2-phenyl-4-thiazolyl)methoxy]-1H-indole-3-acetic acid], the inhibition in assay [1] was found to be 31%.

As to `Cc1c(CC(=O)O)c2cc(OCc3csc(-c4ccc(C(F)(F)F)cc4)n3)ccc2n1Cc1ccc(Cl)cc1` [Example 39, 1-[(4-Chlorophenyl)methyl]-2-methyl-5-[[2-(4-trifluoromethylphenyl)-4-thiazolyl]methoxy]-1H-indole-3-acetic acid], in assay [1], the inhibition is 46%.

`Cc1c(CC(=O)O)c2cc(OCc3csc(-c4ccccc4)n3)ccc2n1Cc1ccccc1` [Example 40, 1-[(Phenyl)methyl]-2-methyl-5-[(2-phenyl-4-thiazolyl)methoxy]-1H-indole-3-acetic acid]: in assay [1], the inhibition worked out at 42%.

Take `Cc1c(CNC(=O)NO)c2cc(OCc3ccc4ccccc4n3)ccc2n1Cc1ccc(Cl)cc1` [Example 42, N-[[1-[(4-Chlorophenyl)methyl]-2-methyl-5-(2-quinolinylmethoxy)-1H-indol-3-yl]methyl]-N'-hydroxyurea]: the “% Inhibition of LTB4” value in assay [2] (25 μM) was found to be 89%. Also, the concentration for half-maximal inhibition (IC50) in assay [2] stood at 5.6 µM.

On to `CC1=C(CC(=O)N(C)O)c2cc(F)ccc2C1=Cc1ccc(OCc2ccc3ccccc3n2)cc1` [Example 44, 5-Fluoro-N-hydroxy-N,2-dimethyl-1-[[4-(2-quinolinylmethoxy)penyl]methylene]-1H -indene-3-acetamide hydrochloride], for which, in assay [2] (25 μM), the “% Inhibition of LTB4” value was 94%. The half-inhibitory concentration (IC50) in assay [2] was determined as 4.5 µM.

For `CCOC(=O)Cc1c(C)n(Cc2ccc(SC)cc2)c2ccc(OCc3nc4ccccc4s3)cc12` [Example 53, 5-(2-Benzothiazolylmethoxy)-1-[[4-(methylthio)phenyl]methyl]-2-methyl-1H-indole-3-acetic acid ethyl ester], in assay [1], the inhibition was 1%. In addition, the “% Inhibition of LTB4” value in assay [2] (25 μM) worked out at 80%.

As for `Cc1c(CC(=O)N(C)O)c2cc(OCc3csc(-c4ccccc4)n3)ccc2n1Cc1ccccc1` [Example 57, N-hydroxy-5-[(2-phenyl-4-thiazolyl)methoxy]-1-(phenylmethyl)-N,2-dimethyl-1H-indole-3-acetamide], the half-inhibitory concentration (IC50) in assay [2] is 43.3 µM.

As to `CSc1ccc(Cn2c(C)c(CC(=O)O)c3cc(OCc4csc(-c5ccccc5)n4)ccc32)cc1` [Example 58, 5-[(2-Phenyl-4-thiazolyl)methoxy]-1-[[(4-methylthio)phenyl]methyl]-2-methyl-1H -indole-3-acetic acid], the inhibition in assay [1] was determined as 43%.

Consider `CCOC(=O)Cc1c(C)n(Cc2cccc(OC)c2)c2ccc(OCc3csc(-c4ccccc4)n3)cc12` [Example 59, 5-[(2-Phenyl-4-thiazolyl)methoxy]-1-[[(3-methoxy)phenyl]methyl]-2-methyl-1H-indole-3-acetic acid ethyl ester], for which, in assay [1], the inhibition amounted to 6%.

For `CCOC(=O)Cc1c(C)n(Cc2ccc(C(C)(C)C)cc2)c2ccc(OCc3csc(-c4ccccc4)n3)cc12` [Example 61, 5-[(2-Phenyl-4-thiazolyl)methoxy]-1-[[4-(1,1-dimethylethyl)phenyl]methyl]-2-methyl-1H-indole-3-acetic acid ethyl ester], the “% Inhibition of LTB4” value in assay [2] (25 μM) was determined as 5%.

On to `Cc1c(CC(=O)O)c2cc(OCc3csc(-c4ccccc4)n3)ccc2n1Cc1ccc2ccccc2c1` [Example 67, 5-[(2-Phenyl-4-thiazolyl)methoxy]-1-(2-nanhthalenylmethyl)-2-methyl-1H-indole-3-acetic acid], for which the inhibition in assay [1] came to 49%. In addition, in assay [2] (25 μM), the “% Inhibition of LTB4” value is 30%.

For `CC(c1cc2ccccc2s1)N(O)C(N)=O` (stereo not drawn) [Example A-64077, reference compound], the “% Inhibition of LTB4” value in assay [2] (25 μM) is 72%. Further, in assay [2], the IC50 stood at 3 µM.

As for `CC(C)c1ccc2c(c1)c(SC(C)(C)C)c(CC(C)(C)C(=O)O)n2Cc1ccc(Cl)cc1` [L-663,536, reference compound], the “% Inhibition of LTB4” value in assay [2] (3 μM) turned out to be 96%.

The values are drawn from patent US5420289A, “Substituted indole-, indene-, pyranoindole- and tetrahydrocarbazole-alkanoic acid derivatives as inhibitors of PLA2 and lipoxygenase” (American Home Products Corporation, priority 1993, dated 1995).
